Laboratory results: patent US5939279A, “Inhibition of bacterial binding by high-mannose oligosaccharides” (priority 1997, dated 1999)

What was measured:
Enterobacter cloacae = experiment: microbe, parasite or virus in culture; format: cell-based; conditions: for inhibition of binding: even at 100 mM concentrations; for IC50: 1 h, read-out: 50% inhibition of binding
Description: (§1) Bacterial adherence was measured as follows: confluent HT-29 cell monolayers, contained in 24 well plates, were washed two times with PBS. Various amounts of the labeled bacteria, all in the same final volume of buffer, were added to the monolayers and allowed to incubate at 37° C. for 1 hour, with intermittent agitation. At least three wells received each concentration of bacteria. At the end of the incubation, unbound bacteria were removed by aspiration, and the monolayers were washed at least 5 times with PBS. After this thorough washing, the HT-29 cells were released from each well with a trypsin-EDTA mixture and the cell suspension was placed in a scintillation vial. Each well was then washed with another 0.5 ml of water along with scraping with a plastic paddle to remove any firmly attached cells. This second wash was then added to the same vial that contained the first trypsin digest. Ten ml of scintillation fluid were added and radioactivity was determined as a measure of the number of bacteria bound.
A variety of simple sugars (D-mannose, D-galactose, D-fructose, L-fucose, D-GlcNAc, sialic acid) were tested at various concentrations to determine their ability to block the adhesion of Enterobacter cloacae to the HT-29 cells. In addition, p-nitrophenyl-α-D-mannoside and 4-methylumbelliferyl-α-D-mannoside and glycopeptides with various high-mannose or complex types of oligosaccharides were also tested as inhibitors. […] […] The plates were then incubated and harvested as described above in the adherence assay, and the amount of radioactivity bound to the cell monolayer was determined.

35 kDa pili subunit = 35 kDa pili subunit (Enterobacter cloacae, UniProt Q9Z643); experiment: Modified Western blot: labeling of pili adhesive subunit by α-mannosylated-biotinylated-albumin; format: binding; conditions: 50 mM sugar in incubation; FIG. 5
Description: Modified Western blot using an α-mannosylated-biotinylated-albumin, followed by an avidin-horseradish peroxidase conjugate and then visualization with 4-chloro-napthol according to the manufacturer's directions; D. Reaction system as in C, but incubated in the presence of 50 mM α-D-glucose; E. Reaction system as in C and D, but incubated in the presence of 50 mM α-D-mannose.
Thus, purified pili were subjected to 12% SDS-PAGE, and the resulting protein bands were transferred to nitrocellulose membranes. After washing the membranes to remove SDS, and incubating them with PBS containing 5% bovine serum albumin, they were incubated for 2 hours at room temperature with a mannosylated-albumin that contained a biotin tag. Some incubations also contained 50 mM D-mannose or 50 mM D-glucose.

HT-29 cells = experiment: Adhesion of E. cloacae to HT-29 cells grown in the presence of N-linked glycoprotein processing inhibitors; format: cell-based; conditions: for activation at 100 µg/mL: inhibitor 100 μg/ml; for Adhesion (cpm): average of three sets of experiments; for change in the amount of radioactive bacteria bound: text summary of Table II; for activation at 5 µg/mL: inhibitor 5 μg/ml; for activation at 25 µg/mL: inhibitor 25 μg/ml; for activation at 50 µg/mL: inhibitor 50 μg/ml; for activation at 10 µg/mL: inhibitor 10 μg/ml
Description: as §1
HT-29 cells were transferred at low density to multiwell plates, and grown in McCoy's medium containing different concentrations of various processing inhibitors. Thus, one 24-well plate was divided into 4 sections, each with 6 wells having the following components: castanospermine at 0, 5, 10, 25, 50 and 100 μg/ml; deoxymannojirimycin at 0, 5, 25, 50, 100 and 200 μg/ml; kifunensine at 0, 2, 5, 10, 25 and 50 μg/ml; swainsonine at 0, 1, 5, 10, 25 and 50 μg/ml. HT-29 cells were allowed to grow to confluency over a period of 4 to 5 days. Once the cells reached confluency, the media was removed by aspiration and the monolayers were washed with PBS. Each well was then challenged with the same number of radioactive bacteria to determine the extent of bacterial adhesion, as described above in the adhesion assay.

Escherichia coli = conditions: studies by Firon et al (8); cited from earlier work
[1] = Homo sapiens, HT-29, percent relative to the control, read-out: Increase in adhesion (%)
[2] = inhibitor 5 μg/ml in culture medium
[3] = inhibitor 10 μg/ml in culture medium
[4] = inhibitor 25 μg/ml in culture medium
[5] = inhibitor 50 μg/ml in culture medium
[6] = inhibitor 100 μg/ml in culture medium

Sequence of 35 kDa pili subunit (Q9Z643 entry or part of it): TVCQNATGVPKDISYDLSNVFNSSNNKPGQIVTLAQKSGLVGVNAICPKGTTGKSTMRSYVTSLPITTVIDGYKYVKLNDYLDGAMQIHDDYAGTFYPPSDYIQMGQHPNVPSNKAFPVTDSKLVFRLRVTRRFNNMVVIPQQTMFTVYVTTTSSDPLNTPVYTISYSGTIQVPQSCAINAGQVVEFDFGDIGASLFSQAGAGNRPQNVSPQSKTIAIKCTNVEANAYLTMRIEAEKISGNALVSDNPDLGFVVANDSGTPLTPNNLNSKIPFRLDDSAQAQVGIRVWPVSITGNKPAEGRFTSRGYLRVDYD

Question: For `OC[C@H]1OC(O)[C@H](O)[C@@H](O)[C@@H]1O` (stereo partly drawn) [D-glucose], which inhibition of binding (Enterobacter cloacae) is on record?
Answer: The inhibition of binding was “did not inhibit binding”.

Question: Which IC50 (Enterobacter cloacae; Enterobacter cloacae) does the source give for `OC[C@H]1OC(O)[C@@H](O)[C@@H](O)[C@@H]1O` (stereo partly drawn) [D-mannose] here?
Answer: Its IC50 is 500 µM.

Question: What about the “labeling of the 35 kDa band by mannosylated-biotinylated-albumin” value (35 kDa pili subunit) of the same compound?
Answer: Its value is “inhibited”.

Question: For `O[C@H]1[C@H](O)[C@@H](O)CN2CC[C@H](O)[C@H]12` [Castanospermine], which activation at 100 µg/mL (HT-29 cells; [1]) is on record?
Answer: The activation at 100 µg/mL was 8%.

Question: What about the “Adhesion (cpm)” value (HT-29 cells; [2]) of the same compound?
Answer: The value was 12,410 cpm.

Question: What about the “Adhesion (cpm)” value (HT-29 cells; [3]) of the same compound?
Answer: The value was 13,787 cpm.

Question: And the “Adhesion (cpm)” value (HT-29 cells; [4])?
Answer: Its value is 13,973 cpm.

Question: What about the “Adhesion (cpm)” value (HT-29 cells; [5]) of the same compound?
Answer: Its value is 13,626 cpm.

Question: What about the “Adhesion (cpm)” value (HT-29 cells; [6]) of the same compound?
Answer: Its value is 14,943 cpm.

Question: And the “change in the amount of radioactive bacteria bound” value (HT-29 cells)?
Answer: The value was “did not cause any significant change”.

Question: With `O=[N+]([O-])c1ccc(O[C@H]2O[C@H](CO)[C@@H](O)[C@H](O)[C@@H]2O)cc1` [p-nitrophenyl-α-D-mannoside] as the compound, how does the “inhibitor of Escherichia coli binding to epithelial cells, relative effectiveness” value (Escherichia coli) read?
Answer: The value was “considerably better as an inhibitor than was α-methylmannoside”.

Question: What about the reversal of binding (Enterobacter cloacae; 0.5 mM added to the monolayers after the bacteria had bound) of the same compound?
Answer: The reversal of binding was “reversed”.

Question: And the IC50 (Enterobacter cloacae; Enterobacter cloacae)?
Answer: The IC50 was 20 µM.

Question: Which inhibition of binding (Enterobacter cloacae) does the source give for `CC(=O)N[C@H]1C(O)O[C@H](CO)[C@H](O)[C@@H]1O` (some centres unmarked) [N-acetylgalactosamine] here?
Answer: Its inhibition of binding is “did not inhibit binding”.

Question: For `OC[C@H]1NC[C@@H](O)[C@@H](O)[C@@H]1O` [Deoxymannojirimycin], which activation at 5 µg/mL (HT-29 cells; [1]) is on record?
Answer: Its activation at 5 µg/mL is 36%.

Question: And the activation at 25 µg/mL (HT-29 cells; [1])?
Answer: The activation at 25 µg/mL was 47%.

Question: What about the activation at 50 µg/mL (HT-29 cells; [1]) of the same compound?
Answer: Its activation at 50 µg/mL is 49%.

Question: And the activation at 100 µg/mL (HT-29 cells; [1])?
Answer: The activation at 100 µg/mL was 53%.

Question: What about the activation at 200 µg/mL (HT-29 cells; Homo sapiens, HT-29, inhibitor 200 μg/ml, percent relative to the control, read-out: Increase in adhesion (%)) of the same compound?
Answer: Its activation at 200 µg/mL is 50%.

Question: And the “Adhesion (cpm)” value (HT-29 cells; [2])?
Answer: The value was 18,630 cpm.

Question: And the “Adhesion (cpm)” value (HT-29 cells; [4])?
Answer: The value was 20,180 cpm.

Question: And the “Adhesion (cpm)” value (HT-29 cells; [5])?
Answer: The value was 20,500 cpm.

Question: What about the “Adhesion (cpm)” value (HT-29 cells; [6]) of the same compound?
Answer: Its value is 21,018 cpm.

Question: And the “Adhesion (cpm)” value (HT-29 cells; inhibitor 200 μg/ml in culture medium)?
Answer: Its value is 20,548 cpm.

Question: Which inhibition of binding (Enterobacter cloacae) does the source give for `CC(=O)N[C@H]1[C@H]([C@H](O)[C@H](O)CO)OC(O)(C(=O)O)C[C@@H]1O` (some centres unmarked) [sialic acid] here?
Answer: Its inhibition of binding is “did not inhibit binding”.

Question: Which activation at 1 µg/mL (HT-29 cells; Homo sapiens, HT-29, inhibitor 1 μg/ml, percent relative to the control, read-out: Increase in adhesion (%)) does the source give for `O[C@H]1[C@H]2[C@H](O)CCCN2C[C@H]1O` [Swainsonine] here?
Answer: The activation at 1 µg/mL was 10%.

Question: What about the activation at 5 µg/mL (HT-29 cells; [1]) of the same compound?
Answer: Its activation at 5 µg/mL is 5%.

Question: What about the activation at 10 µg/mL (HT-29 cells; [1]) of the same compound?
Answer: Its activation at 10 µg/mL is 11%.

Question: And the activation at 50 µg/mL (HT-29 cells; [1])?
Answer: Its activation at 50 µg/mL is 8%.

Question: What about the “Adhesion (cpm)” value (HT-29 cells; inhibitor 1 μg/ml in culture medium) of the same compound?
Answer: Its value is 15,219 cpm.

Question: And the “Adhesion (cpm)” value (HT-29 cells; [2])?
Answer: Its value is 14,577 cpm.

Question: And the “Adhesion (cpm)” value (HT-29 cells; [3])?
Answer: The value was 15,275 cpm.

Question: And the “Adhesion (cpm)” value (HT-29 cells; [4])?
Answer: The value was 13,857 cpm.

Question: And the “Adhesion (cpm)” value (HT-29 cells; [5])?
Answer: Its value is 14,965 cpm.

Question: And the “change in the amount of radioactive bacteria bound” value (HT-29 cells)?
Answer: Its value is “did not cause any change”.

Question: Which “inhibitor of Escherichia coli binding to epithelial cells, relative effectiveness” value (Escherichia coli) does the source give for `Cc1cc(=O)oc2cc(O[C@H]3O[C@H](CO)[C@@H](O)[C@H](O)[C@@H]3O)ccc12` [4-methylumbilliferyl-α-D-mannoside, 4-methylumbelliferyl-α-D-mannoside] here?
Answer: Its value is “even better then the p-nitrophenyl-derivative”.

Question: And the IC50 (Enterobacter cloacae; Enterobacter cloacae)?
Answer: The IC50 was 10 µM.

Question: What about the inhibition at 100 µM (Enterobacter cloacae; Enterobacter cloacae, read-out: inhibition of binding) of the same compound?
Answer: Its inhibition at 100 µM is 80 to 90%.

Question: Which inhibition of binding (Enterobacter cloacae) does the source give for `C[C@H](O)[C@@H](O)[C@@H](O)[C@H](O)C=O` [L-fucose] here?
Answer: Its inhibition of binding is “did not inhibit binding”.

Question: With `O=C1N[C@@H]2[C@@H](O)[C@@H](O)[C@H](O)[C@@H](CO)N2C1=O` [Kifunensine] as the compound, how does the activation at 2 µg/mL (HT-29 cells; Homo sapiens, HT-29, inhibitor 2 μg/ml, percent relative to the control, read-out: Increase in adhesion (%)) read?
Answer: Its activation at 2 µg/mL is 42%.

Question: And the activation at 5 µg/mL (HT-29 cells; [1])?
Answer: The activation at 5 µg/mL was 50%.

Question: And the activation at 10 µg/mL (HT-29 cells; [1])?
Answer: The activation at 10 µg/mL was 43%.

Question: What about the activation at 25 µg/mL (HT-29 cells; [1]) of the same compound?
Answer: The activation at 25 µg/mL was 52%.

Question: And the activation at 50 µg/mL (HT-29 cells; [1])?
Answer: The activation at 50 µg/mL was 75%.

Question: What about the “Adhesion (cpm)” value (HT-29 cells; inhibitor 2 μg/ml in culture medium) of the same compound?
Answer: The value was 19,033 cpm.

Question: And the “Adhesion (cpm)” value (HT-29 cells; [2])?
Answer: The value was 20,161 cpm.

Question: What about the “Adhesion (cpm)” value (HT-29 cells; [3]) of the same compound?
Answer: The value was 19,257 cpm.

Question: And the “Adhesion (cpm)” value (HT-29 cells; [4])?
Answer: Its value is 20,414 cpm.

Question: What about the “Adhesion (cpm)” value (HT-29 cells; [5]) of the same compound?
Answer: The value was 23,442 cpm.

Question: Which results are given for `CO[C@H]1O[C@H](CO)[C@@H](O)[C@H](O)[C@@H]1O` [α-methylmannoside]?
Answer: reversal of binding (Enterobacter cloacae; 5 mM added to the monolayers after the bacteria had bound): reversed; IC50 (Enterobacter cloacae; Enterobacter cloacae): 150 µM

Question: For `CC(=O)N[C@H]1C(O)O[C@H](CO)[C@@H](O)[C@@H]1O` (some centres unmarked) [N-acetylglucosamine], which inhibition of binding (Enterobacter cloacae) is on record?
Answer: Its inhibition of binding is “did not inhibit binding”.

Question: For `O=C[C@H](O)[C@@H](O)[C@@H](O)[C@H](O)CO` [D-galactose], which inhibition of binding (Enterobacter cloacae) is on record?
Answer: The inhibition of binding was “did not inhibit binding”.
